Reference: patent US10800788B2, “4-(aryl)-N-(3-alkoxyfuro[2,3-b]pyrazin-2-yl)-piperazine-1-carboxamide derivative and antiproliferative effect thereof” (Dongguk University Industry-Academic Cooperation Foundation, priority 2016, dated 2020)
Like-named read-outs stand apart in the source and are kept apart here.

Assays:
[1] = system: MDA-MB-231 (breast cancer) cell line; assay: Cell growth inhibition experiment (SRB), MDA-MB-231; type: cell-based, human; details: 96 hours incubation
Experimental: (§1) The cell lines below were used in order to confirm the efficacy of the compounds synthesized in Examples 1 to 60. Human PANC-1 (pancreatic cancer) and MDA-MB-231 (breast cancer) cell lines were obtained from the American Type Culture Collection (ATCC; Manassas, Va.); and HN31 (head and neck cancer) and UMRC2 (kidney cancer) cell lines were secured from the United States National Institutes of Health (Bethesda, Md.). The MDA-MB-231, UMRC2, HN31, and PANC-1 cell lines were cultured in Dulbecco modified Eagle medium (DMEM; Invitrogen, Carlsbad, Calif.) containing FBS (10%), HEPES (10 mM), penicillin (100 U/mL), and streptomycin (100 μg/mL). All cell lines were cultured in an incubator (37° C., 5% CO2).
(§2) The 4-(aryl)-N-(3-alkoxyfuro[2,3-b]pyrazin-2-yl)-piperazine-1-carboxamide derivative compounds synthesized according to Examples 1 to 60 of the present invention were treated with various human tissue-derived cancer cell lines cultured according to Experimental Example 1, and thus the inhibitory effect of the growth of human cancer cells was confirmed. The cell growth inhibition experiment was conducted using the sulforhodamine B (SRB) technique (Skehan et al., J. National Cancer Institute, 1990, 82: 1107-1112). Specifically, each cell line was seeded in a 96-well plate at a density of 2 to 3×10^3 cells/well, cultured overnight, and then treated with the 4-(aryl)-N-(3-alkoxyfuro[2,3-b]pyrazin-2-yl)-piperazine-1-carboxamide derivative compounds of the present invention. The experiment was repeated 3 times for each compound. Cells treated with each compound were additionally incubated for 96 hours, fixed with 10% trichloroacetic acid (TCA), and then left at 4° C. for 1 hour. The resultant was washed 3 times with distilled water. Thereafter, each cell was treated with 0.4% sulforhodamine B dissolved in 1% acetic acid, stained for 30 minutes, and then washed 4 times with 1% acetic acid. The resultant was dried in the air. After shaking the resultant in Tris solution (10 mM) for 5 minutes, the absorbance was measured at 530 nm using a Benchmark Plus Microplate reader (Bio-Rad Laboratories, Hercules, Calif.).
(§3) In order to convert the OD530 value to the number of viable cells per each well, the measured OD530 value was compared to the standard OD530-vs.-cell number curve of each cell line. The percent survival was calculated using the following formula: % survival=Nlive cells(test)/Nlive cells(control)×100

[2] = system: UMRC2 (kidney cancer) cell line; assay: Cell growth inhibition experiment (SRB), UMRC2; type: cell-based, human; details: 96 hours incubation
Experimental: as §1, §2, §3

[3] = system: PANC-1 (pancreatic cancer) cell line; assay: Cell growth inhibition experiment (SRB), PANC-1; type: cell-based; details: Homo sapiens, PANC-1, 96 h, 96 hours incubation
Experimental: as §1, §2, §3

[4] = system: HN31 (head and neck cancer) cell line; assay: Cell growth inhibition experiment (SRB), HN31; type: cell-based, human; details: 96 hours incubation
Experimental: as §1, §2, §3

A549 = assay: Cell growth inhibition experiment (SRB), A549; type: cell-based; details: Homo sapiens, A549, 96 h, 96 hours incubation, read-out: IC50 (μM) for cancer cell line A549
Experimental: as §2, §3

HEK293 = assay: Cell growth inhibition experiment (SRB), HEK293; type: cell-based, human; details: 96 hours incubation, read-out: IC50 (μM) for cancer cell line HEK293
Experimental: as §2, §3

HUVEC = assay: Cell growth inhibition experiment (SRB), HUVEC; type: cell-based, human; details: 96 hours incubation, read-out: IC50 (μM) […]
Experimental: as §2, §3

HT29 = assay: Cell growth inhibition experiment (SRB), HT29; type: cell-based, human; details: 96 hours incubation, read-out: IC50 (μM) for cancer cell line HT29
Experimental: as §2, §3

SK-OV-3 = assay: Cell growth inhibition experiment (SRB), SK-OV-3; type: cell-based, human; details: 96 hours incubation, read-out: IC50 (μM) for cancer cell line SK-OV-3
Experimental: as §2, §3

Row | Structure (SMILES) | IC50 ([1]; Homo sapiens, MDA-MB-231, 96 h) [µM] | IC50 ([2]; Homo sapiens, UMRC2, 96 h) [µM] | IC50 [3] [µM] | IC50 ([4]; Homo sapiens, 96 h) [µM] | IC50 (A549) [µM] | IC50 (HT29; Homo sapiens, HT-29, 96 h) [µM] | IC50 (SK-OV-3; Homo sapiens, SK-OV-3, 96 h) [µM] | IC50 [1] [µM] | IC50 [2] [µM] | IC50 [4] [µM] | IC50 (HT29) [µM] | IC50 (SK-OV-3) [µM] | IC50 (HEK293; Homo sapiens, HEK293, 96 h) [µM] | IC50 (HUVEC; Homo sapiens, HUVEC, 96 h) [µM] | IC50 (HEK293) [µM] | IC50 (HUVEC) [µM]
1 | COc1cc(C)cc(N2CCN(C(=O)Nc3nc4ccoc4nc3OC)CC2)c1 [Example 2, 4-(3-Methoxy-5-methylphenyl)-N-(3-methoxyfuro[2,3-b]pyrazin-2-yl)piperazine-1-carboxamide] | 0.26 | 0.38 | 0.45 | 0.49 | 0.23 | 0.62 | 0.82 | – | – | – | – | – | 1.93 | 0.91 | – | –
2 | COc1cc(F)cc(N2CCN(C(=O)Nc3nc4ccoc4nc3OC)CC2)c1 [Example 3, 4-(3-Fluoro-5-methoxyphenyl)-N-(3-methoxyfuro[2,3-b]pyrazin-2-yl)piperazine-1-carboxamide] | 0.24 | 0.06 | 0.56 | 0.71 | 2.11 | 1.53 | 0.85 | – | – | – | – | – | < 2.5 | < 2.5 | – | –
3 | COc1nc2occc2nc1NC(=O)N1CCN(c2cc(C)cc(C)c2)CC1 [Example 5, 4-(3,5-Dimethylphenyl)-N-(3-methoxyfuro[2,3-b]pyrazin-2-yl)piperazine-1-carboxamide] | 1.12 | 1.72 | 1.32 | 2.35 | < 2.5 | < 2.5 | < 2.5 | – | – | – | – | – | < 2.5 | < 2.5 | – | –
4 | COc1nc2occc2nc1NC(=O)N1CCN(c2cc(C)cc(F)c2)CC1 [Example 6, 4-(3-Fluoro-5-methylphenyl)-N-(3-methoxyfuro[2,3-b]pyrazin-2-yl)piperazine-1-carboxamide] | 1.13 | 1.21 | 0.98 | 1.98 | 1.78 | < 2.5 | < 2.5 | – | – | – | – | – | 1.83 | < 2.5 | – | –
5 | COc1nc2occc2nc1NC(=O)N1CCN(c2cccc(OC(F)(F)F)c2)CC1 [Example 10, N-(3-Methoxyfuro[2,3-b]pyrazin-2-yl)-4-(3-(trifluoromethoxy)phenyl)piperazine-1-carboxamide] | 1.02 | 1.13 | 0.68 | 0.28 | 1.14 | 1.27 | 1.23 | – | – | – | – | – | 0.56 | 1.36 | – | –
6 | CCOc1nc2occc2nc1NC(=O)N1CCN(c2cc(F)cc(OC)c2)CC1 [Example 13, N-(3-Ethoxyfuro[2,3-b]pyrazin-2-yl)-4-(3-fluoro-5-methoxyphenyl)piperazine-1-carboxamide] | 0.16 | 0.26 | 0.65 | 0.72 | < 2.5 | < 2.5 | < 2.5 | – | – | – | – | – | < 2.5 | < 2.5 | – | –
7 | CCOc1nc2occc2nc1NC(=O)N1CCN(c2cc(OC)cc(OCCN(C)C)c2)CC1 [Example 14, 4-(3-(2-(Dimethylamino)ethoxy)-5-methoxyphenyl)-N-(3-ethoxyfuro[2,3-b]pyrazin-2-yl)piperazine-1-carboxamide] | 0.34 | 0.68 | 1.23 | 0.65 | 1.85 | < 2.5 | < 2.5 | – | – | – | – | – | < 2.5 | < 2.5 | – | –

Further lines, with some results ahead:

Row | IC50 ([1]; Homo sapiens, MDA-MB-231, 96 h) [µM] | IC50 ([2]; Homo sapiens, UMRC2, 96 h) [µM] | IC50 [3] [µM] | IC50 ([4]; Homo sapiens, 96 h) [µM] | IC50 (A549) [µM] | IC50 (HT29; Homo sapiens, HT-29, 96 h) [µM] | IC50 (SK-OV-3; Homo sapiens, SK-OV-3, 96 h) [µM] | IC50 [1] [µM] | IC50 [2] [µM] | IC50 [4] [µM] | IC50 (HT29) [µM] | IC50 (SK-OV-3) [µM] | Structure (SMILES) | IC50 (HEK293; Homo sapiens, HEK293, 96 h) [µM] | IC50 (HUVEC; Homo sapiens, HUVEC, 96 h) [µM] | IC50 (HEK293) [µM] | IC50 (HUVEC) [µM]
8 | 0.12 | 0.03 | 0.53 | 0.27 | 1.13 | 0.31 | 0.27 | – | – | – | – | – | COc1cc(OC)cc(N2CCN(C(=O)Nc3nc4ccoc4nc3OC)CC2)c1 [Example 1, 4-(3,5-Dimethoxyphenyl)-N-(3-methoxyfuro[2,3-b]pyrazin-2-yl)piperazine-1-carboxamide] | 0.63 | 0.12 | – | –
9 | 1.13 | 0.54 | 0.68 | 1.54 | < 2.5 | < 2.5 | < 2.5 | – | – | – | – | – | COc1cc(OCCN(C)C)cc(N2CCN(C(=O)Nc3nc4ccoc4nc3OC)CC2)c1 [Example 4, 4-(3-(2-(Dimethylamino)ethoxy)-5-methoxyphenyl)-N-(3-methoxyfuro[2,3-b]pyrazin-2-yl)piperazine-1-carboxamide] | < 2.5 | 1.25 | – | –
10 | 1.78 | 1.78 | 1.89 | < 2.5 | < 2.5 | < 2.5 | < 2.5 | – | – | – | – | – | COc1nc2occc2nc1NC(=O)N1CCN(c2cc(F)cc(F)c2)CC1 [Example 7, 4-(3,5-difluorophenyl)-N-(3-methoxyfuro[2,3-b]pyrazin-2-yl)piperazine-1-carboxamide] | < 2.5 | < 2.5 | – | –
11 | 0.98 | 0.88 | 1.98 | < 2.5 | < 2.5 | < 2.5 | < 2.5 | – | – | – | – | – | COc1nc2occc2nc1NC(=O)N1CCN(c2cc(F)cc(C(F)(F)F)c2)CC1 [Example 8, 4-(3-Fluoro-5-(trifluoromethyl)phenyl)-N-(3-methoxyfuro[2,3-b]pyrazin-2-yl)piperazine-1-carboxamide] | < 2.5 | < 2.5 | – | –
12 | < 2.5 | < 2.5 | < 2.5 | < 2.5 | < 2.5 | < 2.5 | < 2.5 | – | – | – | – | – | COc1nc2occc2nc1NC(=O)N1CCN(c2cc(C(F)(F)F)cc(C(F)(F)F)c2)CC1 [Example 9, 4-(3,5-Bis(trifluoromethyl)phenyl)-N-(3-methoxyfuro[2,3-b]pyrazin-2-yl)piperazine-1-carboxamide] | < 2.5 | < 2.5 | – | –
13 | 0.07 | 0.07 | 0.24 | 0.41 | 1.51 | 1.31 | 1.27 | – | – | – | – | – | CCOc1nc2occc2nc1NC(=O)N1CCN(c2cc(OC)cc(OC)c2)CC1 [Example 11, 4-(3,5-Dimethoxyphenyl)-N-(3-ethoxyfuro[2,3-b]pyrazin-2-yl)piperazine-1-carboxamide] | 0.65 | 0.07 | – | –
14 | 0.05 | 0.14 | 0.24 | 0.33 | 1.28 | 1.3 | 1.29 | – | – | – | – | – | CCOc1nc2occc2nc1NC(=O)N1CCN(c2cc(C)cc(OC)c2)CC1 [Example 12, N-(3-Ethoxyfuro[2,3-b]pyrazin-2-yl)-4-(3-methoxy-5-methylphenyl)piperazine-1-carboxamide] | 1.55 | 0.27 | – | –
15 | 0.24 | 0.25 | 1.12 | 0.78 | < 2.5 | < 2.5 | < 2.5 | – | – | – | – | – | CCOc1nc2occc2nc1NC(=O)N1CCN(c2cc(C)cc(C)c2)CC1 [Example 15, 4-(3,5-Dimethylphenyl)-N-(3-ethoxyfuro[2,3-b]pyrazin-2-yl)piperazine-1-carboxamide] | < 2.5 | < 2.5 | – | –
16 | 0.21 | 0.32 | – | 0.68 | – | 1.59 | 2.13 | 0.12 | 0.36 | 0.57 | < 2.5 | < 2.5 | COc1cc(F)cc(N2CCN(C(=O)Nc3nc4cc(Cl)oc4nc3OC)CC2)c1 [Example 43, N-(6-Chloro-3-methoxyfuro[2,3-b]pyrazin-2-yl)-4-(3-fluoro-5-methoxyphenyl)piperazine-1-carboxamide] | 1.32 | 1.77 | < 2.5 | < 2.5
